According to US9540640B2, “Compositions and methods for inhibiting hypdxia induced damage” (Health Research, Inc., priority 2012, dated 2017):

Each compound was assayed on kidneys (assay: Mouse model of acute renal ischemia, plasma markers of kidney damage). Settings: i.p. 30 mg/kg or 90 mg/kg 30 minutes before 25 min ischemia of both kidneys, 24 hrs after reperfusion, FIG. 8.
Type: in vivo
Experimental: In particular, the protective effects of chemically inhibiting TACR1 were examined in a mouse model of acute renal ischemia using the following protocol: i. 30 minutes before the surgery, mice received an i.p. injection of a TACR1 inhibitor (L-733,060) at either 30 mg/kg or 90 mg/kg, or of the respective vehicle (saline). ii. Under general anesthesia with Ketamin/Rompun, the mice were subjected to 25 min of ischemic of both kidneys. Each of the 2 kidneys was exposed through a flank incision. The kidney pedicle was clamped with atraumatic clamps for 25 min. iii. Mice were kept in an incubator at constant temperature 36 C during the 25 min of ischemia. After 25 min of ischemia, clamps were removed and wounds were closed. iv. 24 hrs after reperfusion blood samples were taken and mice were sacrificed. v. The levels of biochemical markers of kidney damage were measured in the plasma of the collected blood. Specifically, creatinine, neutrophil gelatinase-associated lipocalin (NGAL), osteopontin and urea (blood urea nitrogen) were measured.
`FC(F)(F)c1cc(CO[C@H]2CCCN[C@H]2c2ccccc2)cc(C(F)(F)F)c1` [L-733,060, (2S,3S)-3-{[3,5-bis(trifluoromethyl)benzyl]oxy}-2-phenylpiperidine] was tested, and the “signs of kidney damage (plasma creatinine, NGAL, osteopontin, urea)” value was “decreases the appearance of signs of kidney damage”.

These compounds were tested on HK-2 cells (assay: Combined inhibition of RhoB (shRNA) and TACR1 (L-733,060): HK-2 survival in hypoxia). Settings: L-733,060 5 μM on HK2-RhoB cells (shRNA to RhoB) vs either one alone; 0.2% oxygen 48 hours; FIG. 9.
Type: cell-based
Experimental: To obtain the data presented in FIG. 9, HK-2 cells were trasnduced with either a construct expressing an shRNA to RhoB (cell line “HK2-RhoB”) or the corresponding empty vector (cell line “HK2-vector”). The survival of cells in hypoxic condition with or without addition of TACR1 inhibitor was evaluated using the following protocol: Day 0: HK-2 cells were seeded on two 96-well plates, 3×10^4 cells/well. Day 1: Keratinocyte medium was removed from the plates and fresh DMEM containing low glucose. TACR1 inhibitor (L-733,060; 5 μM) was added to half of the wells of either HK2-RhoB or HK2-vector. One hour later one of the plates was transported to a chamber that contained 0.2% oxygen for 48 hours, while the other remained at normoxia for the same period of time. Day 3: The cells were rescued from hypoxia and the plates were immediate fixed and stained with methylene blue to assess survival. Results were then graphed as the percent of stain of the corresponding cells incubated in normoxic conditions minus the background (non-specific dye absorption by empty wells).
With `FC(F)(F)c1cc(CO[C@H]2CCCN[C@H]2c2ccccc2)cc(C(F)(F)F)c1` [L-733,060, (2S,3S)-3-{[3,5-bis(trifluoromethyl)benzyl]oxy}-2-phenylpiperidine] the “protection from hypoxia, combined inhibition of RhoB and TACR1” value was “better protection that inhibition of either one alone”.

These compounds were tested on hRPTEC cells (assay: TACR1 inhibitor: survival of hRPTEC cells under hypoxia). Settings: 0.2% oxygen 48 hours, low glucose DMEM, inhibitor added 1 hour before; methylene blue; FIG. 7.
Type: cell-based
Experimental: The following protocol was used: Day 0: hRPTEC were seeded on two 96-well plates, 2×10^4 cells/well. Day 1: Keratinocyte medium was removed from the plates and fresh DMEM containing low glucose and the indicated concentration of the TACR1 inhibitor (L-733,060) was added. Each concentration was examined in quadruplicate fashion. The two plates were incubated in the presence of the inhibitor at normal growth conditions for 1 hour, at which time one of the plates was transported to a chamber that contained 0.2% oxygen for 48 hours, while the other remained at normoxia for the same period of time. Day 3: The cells were rescued from hypoxia and the plates were immediate fixed and stained with methylene blue to assess survival. The percent of stain of the corresponding cells incubated in normoxic conditions minus the background (non-specific dye absorption by empty wells) was calculated as a measure of cell resistance to the hypoxia. The results were plotted as a fold increase in resistance over that of cells not treated with L-733,060.
In the case of `FC(F)(F)c1cc(CO[C@H]2CCCN[C@H]2c2ccccc2)cc(C(F)(F)F)c1` [L-733,060, (2S,3S)-3-{[3,5-bis(trifluoromethyl)benzyl]oxy}-2-phenylpiperidine], the “survival of hRPTEC cells under hypoxia” value is reported as “significantly increases survival”.

Each compound was assayed on HK-2 cells (assay: Individual shRNA screening: survival of transduced HK-2 cells under hypoxia (Protocol 2)). Settings: viable shRNA-transduced HK-2 cells after hypoxia (0.2% oxygen 48 hours, low glucose DMEM) vs control HK-2 cells; 2-6 independent experiments; methylene blue.
Type: cell-based, human
Excerpt: shRNA of the invention can be expressed from any suitable vector such as a recombinant viral vector either as two separate, complementary RNA molecules, or as a single RNA molecule with two complementary regions. In this regard, any viral vector capable of accepting the coding sequences for the shRNA molecule(s) to be expressed can be used. Examples of suitable vectors include but are not limited to vectors derived from adenovirus, adeno-associated virus, retroviruses (e.g, lentiviruses, Rhabdoviruses, murine leukemia virus), herpes virus, and the like. A preferred virus is a lentivirus. The tropism of the viral vectors can also be modified by pseudotyping the vectors with envelope proteins or other surface antigens from other viruses. As an alternative to expression of shRNA in cells from a recombinant vector, chemically stabilized shRNA or siRNAs may also be used administered as the agent in the method of the invention. Vectors for expressing shRNA which in turn produces siRNA once introduced into a cell are commercially available. Further, shRNAs which facilitate produce of siRNA targeted to virtually every known human gene are also known and are commercially available. In embodiments specific shRNAs are those which comprise polynucleotide sequences presented in Table 2, wherein those sequences are targeted to the genes as indicated. In particular, Table 2 provides the sequence of segments of shRNAs that target the HRGs of the present disclosure. […] “RPCI” under source designates the “shRNA Resource of Roswell Park Cancer Institute” which distributes shRNAs from commercial vendors. The catalog # column signifies a reference under which each of the shRNAs are made available to the public. The SEQ ID # column refers to the sequence listing that forms a part of this disclosure. The polynucleotide sequences provided in Table 2 are cDNA sequences that recognize the target gene mRNA via shRNA. It will be recognized by those skilled in the art that the shRNAs used in the Examples presented herein have the identical sequences as listed in Table 2, except for substitution of each thymine with uracil. It will be also recognize that each of the shRNAs as used in practice has additional sequences that are typical of shRNA constructs, but that the sequences listed in Table 2 are the ones that are antisense to the mRNA of the indicated HRGs.
Protocol 2: Individual shRNA screening.
Cell Preparation: Lentiviral vectors containing various shRNAs of interest were obtained from commercial sources, and packaged in 293T cells. HK-2 cells were then transduced with these expression constructs and selected for the presence of a vector-encoded antibiotic resistance marker.
Hypoxia Protocol: Day 0: HK-2 cells containing individual shRNAs were seeded in triplicate on two 96-well plates, 3×10^4 cells/well. Negative controls included uninfected cells or cells infected with a corresponding empty vector. Day 1: Keratinocyte medium was removed from the plates and fresh DMEM containing low glucose was added. One of the plates was then transported to a chamber that contained 0.2% oxygen for 48 hours, while the other remained at normoxia for the same period of time. Day 3: The cells were rescued from hypoxia and the plates were immediate fixed and stained with methylene blue to assess survival. Results were then graphed as the percent of stain of the corresponding cells incubated in normoxic conditions minus the background (non-specific dye absorption by empty wells).
With “27 (TTGGATCTGTAAAGACGCCAC; expressed or natural sequence) [compound 27]” the “geometric mean of fold increase in cell number” value (from here on “geometric mean of fold increase”) was 5 fold.
For “15 (ATGACATTGATCTGATCCA; expressed or natural sequence) [compound 15]”, the “geometric mean of fold increase” value was 23 fold.
In the case of “26 (TTCCAGTAGAAGTAGTACT; expressed or natural sequence) [compound 26]”, the “geometric mean of fold increase” value is reported as 12 fold.
With “18 (ATTGGTTTGATTTCCTCCC; expressed or natural sequence) [compound 18]” the “geometric mean of fold increase” value was 18 fold.
In the case of “14 (ATCTCCTGAATATTTCAGCAG; expressed or natural sequence) [compound 14]”, the “geometric mean of fold increase” value is reported as 13 fold.
“21 (TTACTGAACACGATCAGCAGG; expressed or natural sequence) [compound 21]” was tested, and the “geometric mean of fold increase” value was 22 fold.
For “16 (TCTTCAACAGAATCCACTT; expressed or natural sequence) [compound 16]”, the “geometric mean of fold increase” value was 6 fold.
For “25 (TTCTCATAAATCTTGTTCG; expressed or natural sequence) [compound 25]”, the “geometric mean of fold increase” value was 15 fold.
For “12 (ATCTCTTTGGACTTGAAGC; expressed or natural sequence) [compound 12]”, the “geometric mean of fold increase” value was 9 fold.
For “24 (TTCTTGTAAATAATGAGCG; expressed or natural sequence) [compound 24]”, the “geometric mean of fold increase” value was 5 fold.
With “20 (TCTTCTAAGCACTGAAGAG; expressed or natural sequence) [compound 20]” the “geometric mean of fold increase” value was 11 fold.
For “17 (AAACGCTAAAGATGAGTCC; expressed or natural sequence) [compound 17]”, the “geometric mean of fold increase” value was 7 fold.
“23 (ATAAATATCTGTTCCCAAG; expressed or natural sequence) [compound 23]” was tested, and the “geometric mean of fold increase” value was 15 fold.
In the case of “13 (TGATGTCTGGTGTAGTAGG; expressed or natural sequence) [compound 13]”, the “geometric mean of fold increase” value is reported as 10 fold.
In the case of “22 (TACTGAACACGATCAGCAG; expressed or natural sequence) [compound 22]”, the “geometric mean of fold increase” value is reported as 9 fold.
“19 (AACATGTTCATAACCAGGTCG; expressed or natural sequence) [compound 19]” was tested, and the “geometric mean of fold increase” value was 26 fold.
With “11 (TCTTGCCAAGGTTTATGGC; expressed or natural sequence) [compound 11]” the “geometric mean of fold increase” value was 8 fold.

The compounds below were run on HKC8 cells (assay: TACR1 inhibitor: protection of HKC8 cells under hypoxia). Settings: 5 μM, 0.2% oxygen 48 hours, low glucose DMEM; methylene blue; FIG. 11.
Type: cell-based
Experimental: We also tested the protective activity of a chemical TACR1 inhibitor in HKC8 cells using the following protocol. Day 0: HKC8 cells were seeded in complete keratinocyte medium at a density of 2×10^4 cells per well on two 96-well plates. Day 1: Keratinocyte medium was removed from the plates and fresh DMEM containing low glucose and 5 μM TACR1 inhibitor (L-733,060) was added where indicated. Treated and untreated cells were present on the plates in triplicate. The two plates were incubated in the presence of the inhibitor at normal growth conditions for 1 hour, at which time one of the plates was transported to a chamber that contained 0.2% oxygen for 48 hours, while the other remained at normoxia for the same duration. Day 3: Following exposure to hypoxia, the cells were rescued and the plates were immediately fixed and stained with methylene blue to assess survival. Results were then graphed as the percent of stain of the corresponding cells incubated in normoxic conditions minus the background (non-specific dye absorption by empty wells).
For `FC(F)(F)c1cc(CO[C@H]2CCCN[C@H]2c2ccccc2)cc(C(F)(F)F)c1` [L-733,060, (2S,3S)-3-{[3,5-bis(trifluoromethyl)benzyl]oxy}-2-phenylpiperidine], the “protection against the effects of hypoxia on HKC8 cells” value was “strongly protective”.
